Data: the supplement of paper PMC10307832

Key:
Test in all cases: relative viability (nuclei count vs DMSO), 5 days (fraction); higher = more cells survive
RU-SKI 43 + Linsitinib = compound: CC[C@@H](C)CNCC(=O)N1CCC2=C([C@@H]1COC3=CC=CC(=C3)C)C=CS2 [RU-SKI 43] + C[C@]1(O)C[C@@H](c2nc(-c3ccc4ccc(-c5ccccc5)nc4c3)c3c(N)nccn32)C1 [Linsitinib] (partner 1 µM)
Method in brief: (§1)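 Lung cancer cell lines, seeded in 1536-well plates, were treated the following day by pin tool with a single drug or with five library-drug doses (not always all listed) in √10 steps on top of a fixed anchor-drug dose. Cells were fixed and nuclei stained in one step after 5 days, and nuclei were counted. Relative viability is the nuclei count for treated wells divided by that for vehicle wells, reported as medians of duplicate plates.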

Irinotecan + Decitabine = compound: CCc1c2c(nc3ccc(OC(=O)N4CCC(N5CCCCC5)CC4)cc13)-c1cc3c(c(=O)n1C2)COC(=O)[C@]3(O)CC [Irinotecan] + Nc1ncn([C@H]2C[C@H](O)[C@@H](CO)O2)c(=O)n1 [Decitabine] (partner 2 µM)
Method in brief: as §1

Irinotecan + Foretinib = compound: CCc1c2c(nc3ccc(OC(=O)N4CCC(N5CCCCC5)CC4)cc13)-c1cc3c(c(=O)n1C2)COC(=O)[C@]3(O)CC [Irinotecan] + COc1cc2c(Oc3ccc(NC(=O)C4(C(=O)Nc5ccc(F)cc5)CC4)cc3F)ccnc2cc1OCCCN1CCOCC1 [Foretinib] (partner 0.25 µM)
Method in brief: as §1

MK-8033 + Alpelisib = compound: Cn1cc(-c2cnc3ccc4ccc(CS(=O)(=O)NCc5ccccn5)cc4c(=O)c3c2)cn1 [MK-8033] + Cc1nc(NC(=O)N2CCC[C@H]2C(N)=O)sc1-c1ccnc(C(C)(C)C(F)(F)F)c1 [Alpelisib] (partner 2 µM)
Method in brief: as §1

Row | Cell Line | relative viability (RU-SKI 43 + Linsitinib; first compound 0.1 µM) | relative viability (RU-SKI 43 + Linsitinib; first compound 0.3162 µM) | relative viability (RU-SKI 43 + Linsitinib; first compound 1 µM) | relative viability (RU-SKI 43 + Linsitinib; first compound 3.162 µM) | relative viability (RU-SKI 43 + Linsitinib; first compound 10 µM) | relative viability (Irinotecan + Decitabine; first compound 0.6325 µM) | relative viability (Irinotecan + Decitabine; first compound 2 µM) | relative viability (Irinotecan + Decitabine; first compound 6.325 µM) | relative viability (Irinotecan + Decitabine; first compound 20 µM) | relative viability (Irinotecan + Foretinib; first compound 0.6325 µM) | relative viability (Irinotecan + Foretinib; first compound 2 µM) | relative viability (Irinotecan + Foretinib; first compound 6.325 µM) | relative viability (Irinotecan + Foretinib; first compound 20 µM) | relative viability (MK-8033 + Alpelisib; first compound 0.02 µM) | relative viability (MK-8033 + Alpelisib; first compound 0.06325 µM) | relative viability (MK-8033 + Alpelisib; first compound 0.2 µM) | relative viability (MK-8033 + Alpelisib; first compound 0.6325 µM) | relative viability (MK-8033 + Alpelisib; first compound 2 µM)
1 | RERF-LC-KJ | 0.946 | 1.04 | 0.915 | 0.943 | 0.895 | 0.539 | 0.792 | 0.482 | 0.154 | 0.956 | 0.815 | 0.518 | 0.411 | 0.735 | 0.76 | 0.698 | 0.777 | 0.774
2 | LCLC-103H | 1.04 | 1.11 | 1.05 | 1.2 | 1.15 | 0.63 | 0.524 | 0.458 | 0.432 | 0.59 | 0.522 | 0.373 | 0.347 | 1.07 | 0.872 | 0.94 | 0.942 | 0.959
3 | SK-LU-1 | 1.06 | 1.22 | 1.26 | 1.18 | 0.917 | 0.498 | 0.504 | 0.423 | 0.25 | 0.623 | 0.382 | 0.295 | 0.224 | 1 | 1.04 | 0.806 | 1.02 | 0.988
4 | LOU-NH91 | 0.94 | 0.932 | 0.945 | 0.872 | 0.944 | 0.79 | 0.768 | 0.492 | 0.311 | 0.871 | 0.756 | 0.374 | 0.294 | 0.727 |  | 0.69 | 0.702 | 0.699
5 | HCC-366 | 0.604 | 1.83 | 0.694 | 0.608 | 0.592 | 0.341 | 0.212 | 0.104 | 0.0739 | 0.346 | 0.114 | 0.0566 | 0.0694 | 0.409 | 0.435 | 0.325 | 0.376 | 0.325
6 | PC-3 [JPC-3] | 0.885 | 0.956 | 1.03 | 1.02 | 0.866 | 0.805 | 0.927 | 0.655 | 0.365 | 0.912 | 0.667 | 0.323 | 0.368 | 0.959 |  | 0.998 | 1 | 0.956
7 | NCI-H2087 | 1.04 | 1.08 | 0.95 | 0.853 | 1.02 | 0.146 | 0.218 | 0.196 | 0.159 | 0.748 | 0.326 | 0.169 | 0.192 | 1.15 | 1.05 | 1.05 | 1.05 | 1
8 | NCI-H1395 | 0.994 | 1.43 | 1.1 | 0.968 | 1.15 |  | 0.722 | 0.522 | 0.301 | 0.841 | 0.592 | 0.498 | 0.495 | 1.2 | 1 | 1.16 | 1.13 | 1.05
9 | ABC-1 | 0.924 | 0.775 | 0.801 | 0.569 | 0.845 |  | 0.851 | 0.515 | 0.475 |  | 0.617 | 0.28 | 0.152 | 1.12 | 1.12 | 1.15 | 1.04 | 1.08
10 | NCI-H2023 | 0.597 | 0.748 | 0.661 | 0.675 | 0.697 | 0.264 | 0.209 | 0.141 | 0.0603 | 0.832 | 0.842 | 0.295 | 0.116 | 0.655 | 0.516 | 0.5 | 0.474 | 0.521
11 | PC-14 | 0.962 | 1 | 1.05 | 1.07 | 0.939 | 0.184 | 0.182 | 0.12 | 0.111 | 0.935 | 0.806 | 0.431 | 0.189 | 0.888 | 0.878 | 0.87 | 0.898 | 0.804
12 | NCI-H650 | 0.918 | 0.696 | 1.13 |  | 0.911 | 0.246 | 0.213 | 0.168 | 0.091 | 0.981 | 0.774 | 0.226 | 0.15 | 1.08 | 1.1 | 1.01 | 1.16 | 1.17
13 | 201T | 1.07 | 1.02 | 1.07 | 1.17 | 1.03 | 0.714 | 0.615 | 0.295 | 0.298 |  | 0.991 | 0.53 | 0.151 | 1.11 | 0.946 | 0.976 | 1.05 | 1.04
14 | NCI-H1915 | 1.11 | 1.18 | 1.23 | 1.11 | 1.11 | 0.216 | 0.189 | 0.134 | 0.126 | 0.45 | 0.283 | 0.192 | 0.2 | 1.02 | 1 | 1.04 | 1.11 | 1.02
15 | NCI-H358 | 0.706 | 0.781 | 0.819 | 0.933 | 0.687 | 0.183 | 0.193 | 0.154 | 0.0968 | 0.563 | 0.476 | 0.195 | 0.134 | 0.794 | 0.755 | 0.725 | 0.797 | 0.772
16 | NCI-H2347 | 1 | 1.19 | 1.07 | 0.94 | 1.01 | 0.652 | 0.626 | 0.599 | 0.547 | 0.53 | 0.662 | 0.41 | 0.665 | 1.05 | 0.991 | 1.02 | 1.03 | 0.975
17 | H3255 | 0.913 | 0.926 | 0.943 | 1.09 | 0.891 |  | 0.456 | 0.266 | 0.225 | 0.398 | 0.558 | 0.36 | 0.305 | 0.643 | 0.571 | 0.562 | 0.695 | 0.608
